{
  "source": "patent US6881732B2",
  "about": "“Neuroprotection and cardioprotection afforded by chelators with high affinity and specificity for cations of first transition series elements” (Chelator LLC, priority 2002, dated 2005)",
  "key": {"[1]": {"system": "Fenton Reactions (iron catalyzed Haber-Weiss pathways)", "test": "iron-catalyzed free radical generation, superoxide-driven Fenton reaction", "type": "biochemical", "details": "chelator as Fe(III) complex", "procedure": "Employing published methods, as described in “Quantitative Effects of Iron Chelators on Hydroxyl Radical Production by the Superoxide-Driven Fenton Reaction,” J. B. Smith, J. C. Cusumano, C. F. Babbs, Free Rad. Res. Comms. 1990, Vol. 8, No. 2, 101-106, the ability of Fe(III) complexed to N,N′,N″-tri(dihydroxy-phosphoryl methyl)-1,4,7-triazacyclononane to support Fenton reactions was evaluated."}, "[2]": {"system": "HFF (human foreskin fibroblasts)", "test": "toxicity toward nonproliferating mammalian cells in vitro", "type": "cell-based", "details": "0.3 mM; mature, nonreplicating HFF cultures in maintenance media; five-day period of observation", "excerpt": "This example illustrates the relatively low toxicity of a representative example of the chelators of this invention toward nonproliferating mammalian cells in vitro."}, "[3]": {"test": "acute in vivo toxicity, single intravenous dose in mice", "details": "mouse, in vivo, iv", "procedure": "(§1) This example illustrates the low in vivo toxicity of a representative example of the chelators of this invention upon administration to mice.\n(§2) This in vivo LD50 toxicity dose results in an instantaneous in vivo concentration which is orders of magnitude greater than the dose of this agent which inhibits mammalian cell replication in vitro (0.009 mM/L)."}, "mice": {"system": "mice", "test": "acute in vivo toxicity, single intravenous dose in mice", "details": "3.0 mM/kg single intravenous dose; sodium salt", "procedure": "as §1, §2"}, "[4]": {"system": "mammalian cell replication", "test": "inhibition of mammalian cell replication in vitro", "type": "cell-based", "procedure": "as §2"}, "Sprague Dawley rats": {"system": "Sprague Dawley rats", "test": "subacute toxicity, repeated intravenous doses in rats", "type": "in vivo, rat", "excerpt": "Ten male Sprague Dawley rats 29 days old and weighing between 73.4 and 87.8 grams at the beginning of the experiment were randomized, employing the block stratificaton method, into two groups consisting of five rats each. On each of days 1, 2, 3, 6, 7, 8, 9, 10, 13 and 14 of the experiment one set of rats received an intravenous dose of N,N′,N″-tri(dihydroxyphosphoryl methyl)-1,4,7-triazacyclononane (Example 1C in U.S. Pat. No. 5,236,695) equal to 0.05 millimoles per kg of initial body weight (experimental group) while the other group received an equivalent volume of normal saline solution. The weights of the animals were recorded three times per week and the animals were sacrificed on the 28th day, major organs removed and weighed and tissues removed for microscopic examination."}, "unanesthetized rabbit": {"system": "unanesthetized rabbit", "test": "ventricular overdrive pacing (VOP) induced ischemia in unanesthetized rabbit", "type": "in vivo", "details": "for cardioprotection with regard to cardiac performance parameters: 10 min prior to VOP", "procedure": "In the in vivo unanesthetized rabbit VOP-induced myocardial ischemia model, intravenous doses of 0.032 mmole/kg and 0.096 mmole/kg of the test compound were cardioprotective with regard to cardiac performance parameters when administered 10 min prior to VOP. […] The test compound had no affect on any cardiac performance parameters in these experiments prior to VOP-induced ischemia."}, "anesthetized rabbit": {"system": "anesthetized rabbit", "test": "rabbit myocardial infarction model (30 min LCAO, reperfusion ~24 hours)", "type": "in vivo", "details": "for cardioprotection (volume of infarcted myocardium vs. controls): administered beginning after 15 minutes of LCAO", "procedure": "Cardioprotection by the test compound in ischemia-reperfusion injury was evaluated in a rabbit myocardial infarction model employing 30 minutes of reversible ligature occlusion of the left anterior descending coronary artery (LCAO) followed by reperfusion for ˜24 hours prior to sacrifice."}, "rats": {"system": "rats", "test": "rat stroke model, transient occlusion of the middle cerebral artery (TMCAO)", "type": "in vivo", "details": "for Infarct Volumes: 48 hours after surgery; for Infarct Volumes / Motor Score: 1 Hour / Motor Score: 24 Hours / Motor Score: 48 Hours: mean ± SD"}, "[5]": {"system": "ex vivo working rat heart", "test": "ex vivo working rat heart model of global ischemia"}, "[6]": {"details": "Set I: three IV doses of 0.032 mmoles/kg at 10 min prior to, 60 min after MCA occlusion and at reperfusion"}, "[7]": {"details": "Set II: three IV doses of 0.032 mmoles/kg at 60, 120 (reperfusion) and 180 min after MCA occlusion"}, "[8]": {"details": "Set III: single 0.032 mmoles/kg IV dose after 60 minutes of MCA occlusion"}, "[9]": {"details": "Set IV: single 0.032 mmoles/kg IV dose after 90 minutes of MCA occlusion"}},
  "data": [
    {"smiles": "O=C(O)CN(CCN(CC(=O)O)CC(=O)O)CC(=O)O", "note": "[EDTA, ethylene diamine tetra acetic acid, reference compound]", "values": [
      {"measurement": "ability of Fe(III) complexed to the chelator to support Fenton reactions (hydroxyl radical formation)", "setting": "[1]", "result": "supported the Fenton reaction yielding hydroxyl radicals"}
    ]},
    {"smiles": "O=P(O)(O)CN1CCN(CP(=O)(O)O)CCN(CP(=O)(O)O)CC1", "note": "[N,N′,N″-tris(dihydroxyphosphorylmethyl)-1,4,7-triazacyclononane]", "values": [
      {"measurement": "effect on the resting cells", "setting": "[2]", "result": "no effect on the resting cells was observed"},
      {"measurement": "LD50 at 14 days", "setting": "[3]", "result": "> 3000", "unit": "µmol/kg"},
      {"measurement": "mice surviving for over 14 days", "setting": "mice", "result": "Over 50%"},
      {"measurement": "dose which inhibits mammalian cell replication in vitro", "setting": "[4]", "result": 0.009, "unit": "mM/L"},
      {"measurement": "difference in weight or rate of weight gain vs control group", "setting": "Sprague Dawley rats; 0.05 millimoles per kg IV on 10 days within 14 days, injection period and two-week post-injection period", "result": "no statistically significant difference"},
      {"measurement": "differences in tissues upon microscopic examination vs control group", "setting": "Sprague Dawley rats; 0.05 millimoles per kg IV on 10 days, necropsy on 28th day", "result": "no differences"},
      {"measurement": "differences in weights of major organs vs control group", "setting": "Sprague Dawley rats; 0.05 millimoles per kg IV on 10 days, sacrifice on 28th day", "result": "no differences observed"},
      {"measurement": "ability of Fe(III) complexed to the chelator to support Fenton reactions (hydroxyl radical formation)", "setting": "[1]", "result": "failed to show evidence of hydroxyl ion formation above background"},
      {"measurement": "cardioprotection with regard to cardiac performance parameters", "setting": "unanesthetized rabbit; 0.032 mmole/kg intravenous", "result": "cardioprotective"},
      {"measurement": "cardioprotection with regard to cardiac performance parameters", "setting": "unanesthetized rabbit; 0.096 mmole/kg intravenous", "result": "cardioprotective"},
      {"measurement": "cardioprotection", "setting": "unanesthetized rabbit; single IV dose of 0.032 mmole/kg administered up to 60-120 min prior to VOP-induced ischemia", "result": "significant cardioprotection"},
      {"measurement": "effect on cardiac performance parameters prior to VOP-induced ischemia", "setting": "unanesthetized rabbit; unanesthetized rabbit", "result": "no affect"},
      {"measurement": "cardioprotection (volume of infarcted myocardium vs. controls)", "setting": "anesthetized rabbit", "result": "significant reduction"},
      {"measurement": "volume of infarcted myocardium expressed as % of myocardial volume at risk", "setting": "anesthetized rabbit; administration beginning after 15 minutes of LCAO", "result": 30.6, "unit": "%"},
      {"measurement": "infarcted myocardium as a % of volume at risk", "setting": "anesthetized rabbit; administration initiated 10 minutes prior to the onset of ischemia", "result": 28.1, "unit": "%"},
      {"measurement": "effect on pre-ischemia cardiac performance parameters", "setting": "anesthetized rabbit; rabbit", "result": "without affecting"},
      {"measurement": "Infarct Volumes", "setting": "rats; [6]", "result": "3.5 ± 3.7 percentage of whole hemispheric tissue"},
      {"measurement": "Motor Score: 1 Hour", "setting": "rats; [6]", "result": "7.3 ± 1.3", "unit": "points"},
      {"measurement": "Motor Score: 24 Hours", "setting": "rats; [6]", "result": "5.9 ± 1.1", "unit": "points"},
      {"measurement": "Motor Score: 48 Hours", "setting": "rats; [6]", "result": "5.4 ± 1.9", "unit": "points"},
      {"measurement": "Infarct Volumes", "setting": "rats; [7]", "result": "6.2 ± 7.5 percentage of whole hemispheric tissue"},
      {"measurement": "Motor Score: 1 Hour", "setting": "rats; [7]", "result": "6.9 ± 1.1", "unit": "points"},
      {"measurement": "Motor Score: 24 Hours", "setting": "rats; [7]", "result": "3.6 ± 2.9", "unit": "points"},
      {"measurement": "Motor Score: 48 Hours", "setting": "rats; [7]", "result": "3.0 ± 3.0", "unit": "points"},
      {"measurement": "Infarct Volumes", "setting": "rats; [8]", "result": "2.6 ± 2.1 percentage of whole hemispheric tissue"},
      {"measurement": "Motor Score: 1 Hour", "setting": "rats; [8]", "result": "6.8 ± 1.0", "unit": "points"},
      {"measurement": "Motor Score: 24 Hours", "setting": "rats; [8]", "result": "4.3 ± 1.0", "unit": "points"},
      {"measurement": "Motor Score: 48 Hours", "setting": "rats; [8]", "result": "2.8 ± 2.1", "unit": "points"},
      {"measurement": "Infarct Volumes", "setting": "rats; [9]", "result": "4.63 ± 9.08 percentage of whole hemispheric tissue"},
      {"measurement": "Motor Score: 1 Hour", "setting": "rats; Set IV: single 0.032 mmoles/kg IV dose after 90 minutes of MCA occlusion, cell marked '2 hours:'", "result": "7.43 ± 1.27", "unit": "points"},
      {"measurement": "Motor Score: 24 Hours", "setting": "rats; [9]", "result": "4.9 ± 2.04", "unit": "points"},
      {"measurement": "Motor Score: 48 Hours", "setting": "rats; [9]", "result": "3.7 ± 1.98", "unit": "points"},
      {"measurement": "blood pressure, heart rate and temperature values compared with vehicle-treated animals", "setting": "rats; all treated groups", "result": "similar"},
      {"measurement": "reduction in infarct volumes compared to the corresponding control group", "setting": "rats; all treated rats", "result": "robust"},
      {"measurement": "effects on cardiac parameters following ischemia", "setting": "[5]; 2.7 mM in the perfusing medium", "result": "no adverse effects"},
      {"measurement": "effects on cardiac performance parameters prior to ischemia", "setting": "[5]; 2.7 mM in the perfusing medium", "result": "no effects"},
      {"measurement": "cardioprotection with regard to cardiac performance parameters following global ischemia", "setting": "[5]; added to the perfusing medium, broad concentration range", "result": "significantly cardioprotective"},
      {"measurement": "concentration of peak efficacy (cardioprotection)", "setting": "[5]; in the perfusing medium", "result": 0.01, "unit": "mM"}
    ]},
    {"smiles": "O=C(NCCO[N+](=O)[O-])c1cccnc1", "note": "[nicorandil, reference compound]", "values": [
      {"measurement": "cardioprotection (volume of infarcted myocardium vs. controls)", "setting": "anesthetized rabbit", "result": "failed to provide cardioprotection"}
    ]}
  ]
}
